Patent US8093284B2, “Process for producing aqueous solution of doripenem” (Shionogi & Co., Ltd., priority 2005, dated 2012)

Tests used:
Assay type in all cases: physicochemical
[1] = Decomposition of doripenem in an aqueous solution at 40, 50 or 60° C.; conditions: aqueous solution at 40° C., 50° C., or 60° C.
Experimental: Decomposition of doripenem in an aqueous solution of doripenem at 40° C., 50° C., or 60° C. was examined. […] FIG. 2, FIG. 3 and FIG. 4 show a doripenem decomposition curve at each temperature.

[2] = Decomposition of doripenem on heating and dissolving an aqueous suspension with a continuous heating and dissolving equipment; conditions: continuous heating; position of 28 m of the equipment; heating source around 60° C., about 6 L/min, solution around 55° C. at outlet; 15.5 kg in 280 L water
Experimental: An aqueous suspension of doripenem (aqueous suspension in which 15.5 kg of doripenem had been mixed with 280 L of water) was cooled to 10° C. or lower to suppress decomposition during waiting. This aqueous suspension was passed through a continuous heating and dissolving equipment of an inner diameter of around 23 mm and a length of around 28 m, having a heating source at around 60° C. at about 6 L/min, and elevation in a temperature and dissolution were performed during passage through the machine to obtain an aqueous solution of doripenem at around 55° C. at an outlet of the dissolving machine. A decomposition degree of doripenem at a position of 28 m of the continuous heating and dissolving equipment was about 0.2%.

[3] = Decomposition of doripenem on heating and dissolving an aqueous suspension in a batch manner; conditions: heating medium around 60° C., solution around 55° C., measured immediately after dissolution, 15.5 kg in 280 L water
Experimental: An aqueous suspension of doripenem (aqueous suspension in which 15.5 kg of doripenem had been mixed with 280 L of water) was cooled to 10° C. or lower to suppress decomposition during waiting. This aqueous suspension was dissolved as it was using a heating medium at around 60° C. to obtain an aqueous solution of doripenem, at around 55° C. A decomposition degree of doripenem measured immediately after dissolution of doripenem was about 7%.

## C[C@@H](O)[C@H]1C(=O)N2C(C(=O)O)=C(S[C@@H]3CN[C@H](CNS(N)(=O)=O)C3)[C@H](C)[C@H]12 [doripenem]
[1]
  decomposition of doripenem in aqueous solution: decomposed at these temperatures with time
[2]
  decomposition degree of doripenem: about 0.2%
[3]
  decomposition degree of doripenem: about 7%
